Reference: patent US9044487B2, “Hematopoietic neoplasm chemotherapy” (Eli Lilly and Company, priority 2009, dated 2015)
Where two headings read alike, the source gives them in different places.

Key:
[1] = system: K562; experiment: Reduction in cell viability (CellTiter-Glo Luminescent Cell Viability Assay); type: cell-based, human; conditions: 48 hrs, read-out: Reduction in cell viability after treatment - EC50 (mean of triplicates)
Procedure: (§1) Cell viability is determined by the CellTiter-Glo® Luminescent Cell Viability Assay (Promega, Catalog #G7570) which is a method of estimating viable cell number based on quantitation of ATP in metabolically active cells. After cells are lysed, the mono-oxygenation of the substrate luciferin is catalyzed by the enzyme luciferase in the presence of Mg2+, ATP and molecular oxygen, resulting in the generation of a luminescent signal that is proportional to the number of viable cells in the assay wells.
(§2) To measure the viability of cells after treatment with compounds, tumor cells are plated at 2×10^4 per well in 96 well plates and incubated overnight at 37° C., with 5% CO2. Tumor cells are treated with test compound at desired concentrations in triplicate, including untreated/negative control cells. The assay plates are re-incubated for 48 hrs. At the end of the incubation period, a mixture of lysis assay buffer and substrate is added to each sample well. The luminescence in each well is measured using a microtiter plate luminometer.
(§3) MV4;11 is a human acute myeloid leukemia line characterized by the presence of a fusion transcript comprised of the MLL and AF4 genes and by the presence of an internal tandem duplication in the juxtamembrane region of the FLT-3 gene. RS4;11 is a human acute lymphoid leukemia cell line characterized by the presence of a fusion transcript comprised of the MLL and AF4 genes. REH is a human acute lymphoid leukemia (non-T; non-B) cell line characterized by the presence of a fusion transcript comprised of the TEL and AML1 genes. Kasumi 1 is a human acute myeloid leukemia line characterized by the presence of a fusion transcript comprised of the AML1 and ETO genes. K562 is a human chronic myelogenous leukemia cell line characterized by the presence of a fusion transcript comprised of the Bcr and Abl genes. […] Jurkatt is a human acute T-cell leukemia cell line. Each of the cell lines are obtained from the American Type Culture Collection (ATCC).

[2] = system: HEL 92.1.7; experiment: as above; type: cell-based, human; conditions: 48 hrs, read-out: Reduction in cell viability after treatment - EC50 (mean of triplicates)
Procedure: as §1, §2, §3

[3] = system: RS4;11; experiment: as above; type: cell-based, human; conditions: 48 hrs, read-out: Reduction in cell viability after treatment - EC50 (mean of triplicates)
Procedure: as §1, §2, §3

[4] = system: Kasumi; experiment: as above; type: cell-based, human; conditions: 48 hrs, read-out: Reduction in cell viability after treatment - EC50 (mean of triplicates)
Procedure: as §1, §2, §3

[5] = system: REH; experiment: as above; type: cell-based, human; conditions: 48 hrs, read-out: Reduction in cell viability after treatment - EC50 (mean of triplicates)
Procedure: as §1, §2, §3

[6] = system: Jurkat; experiment: as above; type: cell-based, human; conditions: 48 hrs, read-out: Reduction in cell viability after treatment - EC50 (mean of triplicates)
Procedure: as §1, §2, §3

[7] = system: MV4;11; experiment: as above; type: cell-based, human; conditions: 48 hrs, read-out: Reduction in cell viability after treatment - EC50 (mean of triplicates)
Procedure: as §1, §2, §3

[8] = system: MV4;11 leukemia xenografts; experiment: Antitumor efficacy in MV4;11 leukemia xenografts; type: in vivo, female CD-1 nu/nu strain mice; conditions: vehicle control 233 ± 23.2
Procedure: Cultured cells (ATCC) are implanted subcutaneously in the rear flank of female CD-1 nu/nu strain mice which have been acclimated for one week in the animal facility after receipt from the vendor. […] The tumors are measured 2 times per week by electronic calipers to plot growth curves. Animals are also monitored for fluctuations in body weight and survival.

[9] = system: K562; experiment: Caspase 3 activity (Apo-ONE Homogeneous Caspase-3/7 Assay); type: cell-based, human; conditions: relative to untreated controls
From the text: (§4) Apoptosis or programmed cell death is characterized by a set of biochemical reactions, one of which is the induction of caspases. Activated caspases are proteases that participate in a cascade of cleavage events that disable key enzymes responsible for cell homeostasis and repair. Caspases 3 and 7 play key effector roles in apoptosis and can be detected and measured by a fluorescent biochemical assay. The increase of Caspase-3/7 activity in cells is directly correlated to apoptotic activity. (D. W. Nicholson, et al., Nature, 376, 37-43 (1995)) The Promega Apo-ONE Homogeneous Caspase-3/7 Assay Kit is used (Catalog #G7791). The assay buffer consists of 30 mM HEPES (N-(2-hydroxyethyl)piperazine-N′-(2-ethanesulfonic acid) pH 7.4, 150 mM NaCl, 50 mM KCl, 10 mM MgCl2, 0.4 mM EGTA (ethylene glycol tetraacetic acid), 0.5% Nonidet P40 (octylphenolpoly(ethyleneglycol ether)), 0.1% CHAPS (3-[(3-Cholamidopropyl)dimethylammonio]-1-propanesulfonate hydrate and 10% sucrose, which lyses/permeabilizes cultured cells and a caspase 3/7 substrate, Z-DEVD (Z-Asp(OMe)-Glu(OMe)-Val-Asp(OMe)), coupled to a profluorescent rhodamine 110. When the buffer-substrate mixture is added to a test sample, the cleavage and subsequent removal of the DEVD peptides by caspase 3/7 activity results in intense fluorescence of the rhodamine 110 leaving group, which is detected by excitation at 490 nm. The amount of fluorescent product is proportional to the amount of caspase 3/7 cleavage activity in the sample.
(§5) To measure the apoptotic effect of test compounds, tumor cells are plated at 1×10^4 cells per well in 96 well plates and incubated overnight at 37° C., with 5% CO2. Tumor cells are treated with test compound at desired concentrations in triplicate, including untreated/negative control wells. The assay plates are re-incubated for 48 hrs. At the end of the incubation period, a mixture of the assay buffer and substrate is added to each sample well. The fluorescence in each well is measured at an excitation wavelength of 480+/−20 nm and an emission wavelength of 530+/−25 nm. The % increase of caspase activity in treated cells is calculated relative to untreated controls.
(§6) MV4;11 is a human acute myeloid leukemia line characterized by the presence of a fusion transcript comprised of the MLL and AF4 genes and by the presence of an internal tandem duplication in the juxtamembrane region of the FLT-3 gene. RS4;11 is a human acute lymphoid leukemia cell line characterized by the presence of a fusion transcript comprised of the MLL and AF4 genes. REH is a human acute lymphoid leukemia (non-T; non-B) cell line characterized by the presence of a fusion transcript comprised of the TEL and AML1 genes. Kasumi 1 is a human acute myeloid leukemia line characterized by the presence of a fusion transcript comprised of the AML1 and ETO genes. K562 is a human chronic myelogenous leukemia cell line characterized by the presence of a fusion transcript comprised of the Bcr and Abl genes. HEL 92.1.7 is a human erythroleukemia cell line characterized by the presence of a V617F mutation in the JAK2 gene. Jurkatt is a human acute T-cell leukemia cell line. Each of the cell lines are obtained from the American Type Culture Collection (ATCC). In the following tables the term “Compound 1” or “Cmpd 1” means 7-(2,5-dihydro-4-imidazo[1,2-a]pyridine-3-yl-2,5-dioxo-1H-pyrrol-3-yl)-9-fluoro-1,2,3,4-tetrahydro-2-(1-piperidinyl-carbonyl)-pyrrolo[3,2,1-jk][1,4]benzodiazepine. The GSK-3 inhibitor [(3-(2,4-dichlorophenyl)-4-(1-methyl-1H-indol-3-yl)-1H-pyrrole-2,5-dione (SB216763), Sigma-Aldrich is used as a positive comparator control in some experiments. The compound GSK-3 Inhibitor IX, (2′Z,3′E)-6-bromoindirubin-3′-oxime (“GSK3-IX”) Calbiochem, is used as a positive control in some experiments. Both SB216763 and GSK3-IX are mentioned in the Wang et al., Nature, 455, 1205-1210 (2008) paper as evidencing positive results. […]

[10] = system: HEL 92.1.7; experiment: as above; type: cell-based, human; conditions: relative to untreated controls
From the text: as §4, §5, §6

[11] = system: RS4;11; experiment: as above; type: cell-based, human; conditions: relative to untreated controls
From the text: as §4, §5, §6

[12] = system: Kasumi 1; experiment: as above; type: cell-based, human; conditions: relative to untreated controls
From the text: as §4, §5, §6

[13] = system: REH; experiment: as above; type: cell-based, human; conditions: relative to untreated controls
From the text: as §4, §5, §6

[14] = system: Jurkat; experiment: as above; type: cell-based, human; conditions: relative to untreated controls
From the text: as §4, §5, §6

[15] = system: MV4;11; experiment: as above; type: cell-based, human; conditions: relative to untreated controls
From the text: as §4, §5, §6

## O=C1Nc2cc(Br)ccc2/C1=C1/Nc2ccccc2/C1=N\O [GSK3-IX, (2′Z,3′E)-6-bromoindirubin-3′-oxime]
[1]
  EC50: > 3300 nM
[2]
  EC50: > 3300 nM
[3]
  EC50: 300 nM
[4]
  EC50: 1200 nM
[5]
  EC50: 1100 nM
[6]
  EC50: > 3300 nM
[7]
  EC50: 200 nM

## Nc1ccn([C@@H]2O[C@H](CO)[C@@H](O)[C@@H]2O)c(=O)n1 [Arabinosylcytosine]
[8]; 30 mg/kg IP administered every day for 14 days
  Tumor Volume at day 33 Mean ± Standard Error: 129 ± 11.2 mm^3

## Cn1cc(C2=C(c3ccc(Cl)cc3Cl)C(=O)NC2=O)c2ccccc21 [SB216763, 3-(2,4-dichlorophenyl)-4-(1-methyl-1H-indol-3-yl)-1H-pyrrole-2,5-dione]
[9]; 20 μM SB216763, 48 hrs
  % Increase in Caspase 3 after treatment with SB216763 (mean of triplicates): 223%
[10]; 10 μM SB216763, 48 hrs
  % Increase in Caspase 3 after treatment with SB216763 (mean of triplicates): 250%
[11]; 20 μM SB216763, 48 hrs
  % Increase in Caspase 3 after treatment with SB216763 (mean of triplicates): 117%
[12]; 10 μM SB216763, 48 hrs
  % Increase in Caspase 3 after treatment with SB216763 (mean of triplicates): 27%
[13]; 20 μM SB216763, 48 hrs
  % Increase in Caspase 3 after treatment with SB216763 (mean of triplicates): 113%
[14]; 10 μM SB216763, 48 hrs
  % Increase in Caspase 3 after treatment with SB216763 (mean of triplicates): 101%
[15]; 30 μM SB216763, 48 hrs
  % Increase in Caspase 3 after treatment with SB216763 (mean of triplicates): 83%
[1]; Homo sapiens
  EC50: 20000 nM
[2]; Homo sapiens
  EC50: 11300 nM
[3]; Homo sapiens
  EC50: 4400 nM
[4]; Homo sapiens
  EC50: 10000 nM
[5]; Homo sapiens
  EC50: 4200 nM
[6]; Homo sapiens
  EC50: > 10000 nM
[7]; Homo sapiens
  EC50: 12600 nM

## O=C1NC(=O)C(c2cnc3ccccn23)=C1c1cn2c3c(cc(F)cc13)CN(C(=O)N1CCCCC1)CC2 [Compound 1, 7-(2,5-dihydro-4-imidazo[1,2-a]pyridine-3-yl-2,5-dioxo-1H-pyrrol-3-yl)-9-fluoro-1,2,3,4-tetrahydro-2-(1-piperidinyl-carbonyl)-pyrrolo[3,2,1-jk][1,4]benzodiazepine]
[9]; 0.0007 μM Compound 1, 48 hrs
  % Increase in Caspase 3 after treatment with Cmpd 1 (mean of triplicates): 1057%
[10]; 0.120 μM Compound 1, 48 hrs
  % Increase in Caspase 3 after treatment with Cmpd 1 (mean of triplicates): 284%
[11]; 0.009 μM Compound 1, 48 hrs
  % Increase in Caspase 3 after treatment with Cmpd 1 (mean of triplicates): 111%
[12]; 0.370 μM Compound 1, 48 hrs
  % Increase in Caspase 3 after treatment with Cmpd 1 (mean of triplicates): 133%
[13]; 0.0007 μM Compound 1, 48 hrs
  % Increase in Caspase 3 after treatment with Cmpd 1 (mean of triplicates): 132%
[14]; 0.370 μM Compound 1, 48 hrs
  % Increase in Caspase 3 after treatment with Cmpd 1 (mean of triplicates): 140%
[15]; 0.010 μM Compound 1, 48 hrs
  % Increase in Caspase 3 after treatment with Cmpd 1 (mean of triplicates): 188%
[8]; 0.1 mg/kg IV administered twice a week, 6 cycles
  Tumor Volume at day 33 Mean ± Standard Error: 189 ± 22.3 mm^3
[8]; 1 mg/kg IV administered twice a week, 6 cycles
  Tumor Volume at day 33 Mean ± Standard Error: 154 ± 15 mm^3
[8]; 5 mg/kg IV administered once a week, three cycles
  Tumor Volume at day 33 Mean ± Standard Error: 167 ± 11.7 mm^3
[1]; Homo sapiens
  EC50: 46 nM
[2]; Homo sapiens
  EC50: 34 nM
[3]; Homo sapiens
  EC50: 5 nM
[4]; Homo sapiens
  EC50: 16 nM
[5]; Homo sapiens
  EC50: 6 nM
[6]; Homo sapiens
  EC50: 46 nM
[7]; Homo sapiens
  EC50: 82 nM
